In patent publication US9695155B2, “Herbicidal substituted pyrimidinyloxy benzene compounds” (E. I. DU PONT DE NEMOURS AND COMPANY, priority 2013, dated 2017):

Tests used:
wild oat = experiment: Test C postemergence; assay type: in vivo, Avena fatua; conditions: for Plant response rating, Oat, Wild: Postemergence, scale 0 to 100 (0 no effect, 100 complete control)
How it was run: (§1)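 Visual ratings on a 0–100 scale (100 = complete control) were made versus untreated controls after 13–15 greenhouse days. Chemicals in a surfactant-containing non-phytotoxic solvent were applied either preemergence to seeds in loam–sand soil or postemergence to 1- to 4-leaf plants 2–18 cm tall.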

ragweed = experiment: Test C preemergence; assay type: in vivo, Ambrosia elatior; conditions: for Ragweed plant response rating: preemergence
How it was run: as §1

blackgrass [1] = experiment: Test C preemergence; assay type: in vivo, Alopecurus myosuroides; conditions: for Blackgrass plant response rating: preemergence
How it was run: as §1

morningglory = experiment: Test C preemergence; assay type: in vivo, Ipomoea coccinea; conditions: for Morningglory plant response rating: preemergence
How it was run: as §1

soybean = experiment: Test C preemergence; assay type: in vivo, Glycine max; conditions: for Soybean plant response rating: preemergence
How it was run: as §1

barnyardgrass = experiment: Test C postemergence; assay type: in vivo, Echinochloa crus-galli; conditions: for Plant response rating, Barnyardgrass: Postemergence
How it was run: as §1

corn = experiment: Test C postemergence; assay type: in vivo, Zea mays; conditions: for Plant response rating, Corn: Postemergence
How it was run: as §1

yellow nutsedge [2] = experiment: Test C preemergence; assay type: in vivo, Cyperus esculentus; conditions: for Nutsedge, Yellow plant response rating: preemergence
How it was run: as §1

Italian ryegrass = experiment: Test C preemergence; assay type: in vivo, Lolium multiflorum; conditions: for Ryegrass, Italian plant response rating: preemergence
How it was run: as §1

chickweed = experiment: Test C postemergence; assay type: in vivo, Stellaria media; conditions: for Plant response rating, Chickweed: Postemergence
How it was run: as §1

pigweed [3] = experiment: Test C preemergence; assay type: in vivo, Amaranthus retroflexus; conditions: for Pigweed plant response rating: preemergence
How it was run: as §1

giant foxtail = experiment: Test C postemergence; assay type: in vivo, Setaria faberii; conditions: for Plant response rating, Foxtail, Giant: Postemergence
How it was run: as §1

yellow nutsedge [4] = experiment: Test C postemergence; assay type: in vivo, Cyperus esculentus; conditions: for Plant response rating, Nutsedge, Yellow: Postemergence, scale 0 to 100 (0 no effect, 100 complete control)
How it was run: as §1

pigweed [5] = experiment: Test A preemergence; assay type: in vivo, Amaranthus retroflexus
How it was run: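 Visual 0–100 rating (100 = complete control) taken about 10 d post-treatment relative to untreated checks. Preemergence: directed soil spray on sown loam/sand pots. Postemergence: seedlings 2–10 cm, 1–2 leaf. Non-phytotoxic solvent formulation with surfactant.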

blackgrass [6] = experiment: Test C postemergence; assay type: in vivo, Alopecurus myosuroides; conditions: for Plant response rating, Blackgrass: Postemergence
How it was run: as §1

wheat, winter = experiment: Test C postemergence; assay type: in vivo, Triticum aestivum; conditions: for Plant response rating, Wheat: Postemergence, scale 0 to 100 (0 no effect, 100 complete control)
How it was run: as §1

[7] = 16 g ai/ha, scale 0 to 100 (0 no effect, 100 complete control)
[8] = 62 g ai/ha, scale 0 (no effect) to 100 (complete control)
[9] = 125 g ai/ha, scale 0 (no effect) to 100 (complete control)
[10] = Preemergence, 31 g ai/ha, scale 0 to 100, 0 no effect, 100 complete control
[11] = 16 g ai/ha, postemergence, visual rating, scale 0 to 100 (0 no effect, 100 complete control), 13 to 15 days
[12] = 31 g ai/ha, scale 0 to 100 (0 no effect, 100 complete control), 13 to 15 days
[13] = 62 g ai/ha, scale 0 to 100 (0 no effect, 100 complete control)

N#Cc1cccc(Oc2ncc(Br)cn2)c1-n1cc(I)cn1 [Compound 88]
Plant response rating (0 to 100), Oat, Wild (wild oat; 125 g ai/ha, postemergence): 10 | Plant response rating, Oat, Wild (wild oat; 31 g ai/ha, 13 to 15 days): 5 | Plant response rating, Oat, Wild (wild oat; 62 g ai/ha): 10 | Ragweed plant response rating (ragweed; [7]): 0 | Ragweed plant response rating (ragweed; [8]): 5 | Ragweed plant response rating (ragweed; [9]): 60 | Plant response rating, Ragweed (ragweed; [10]): 0 | Blackgrass plant response rating (blackgrass [1]; [7]): 0 | Blackgrass plant response rating (blackgrass [1]; [8]): 60 | Blackgrass plant response rating (blackgrass [1]; [9]): 90 | Plant response rating, Blackgrass (blackgrass [1]; [10]): 5 | Morningglory plant response rating (morningglory; [7]): 0 | Morningglory plant response rating (morningglory; [8]): 40 | Morningglory plant response rating (morningglory; [9]): 90 | Plant response rating, Morningglory (morningglory; [10]): 5 | Soybean plant response rating (soybean; [7]): 0 | Soybean plant response rating (soybean; [8]): 40 | Soybean plant response rating (soybean; [9]): 90 | Plant response rating, Soybean (soybean; [10]): 5 | Barnyardgrass plant response rating (barnyardgrass; [11]): 5 | Plant response rating (0 to 100), Barnyardgrass (barnyardgrass; 125 g ai/ha, postemergence): 10 | Plant response rating, Barnyardgrass (barnyardgrass; [12]): 5 | Plant response rating, Barnyardgrass (barnyardgrass; [13]): 5 | Corn plant response rating (corn; [11]): 5 | Plant response rating (0 to 100), Corn (corn; 125 g ai/ha, postemergence): 10 | Plant response rating, Corn (corn; [12]): 10 | Plant response rating, Corn (corn; [13]): 10 | Nutsedge, Yellow plant response rating (yellow nutsedge [2]; [7]): 0 | Nutsedge, Yellow plant response rating (yellow nutsedge [2]; [8]): 5 | Nutsedge, Yellow plant response rating (yellow nutsedge [2]; [9]): 5 | Plant response rating, Nutsedge, Yellow (yellow nutsedge [2]; [10]): 0 | Ryegrass, Italian plant response rating (Italian ryegrass; [7]): 0 | Ryegrass, Italian plant response rating (Italian ryegrass; [8]): 0 | Ryegrass, Italian plant response rating (Italian ryegrass; [9]): 5 | Plant response rating, Ryegrass, Italian (Italian ryegrass; [10]): 0 | Chickweed plant response rating (chickweed; [11]): 5 | Plant response rating (0 to 100), Chickweed (chickweed; 125 g ai/ha, postemergence): 90 | Plant response rating, Chickweed (chickweed; [12]): 15 | Plant response rating, Chickweed (chickweed; [13]): 20 | Pigweed plant response rating (pigweed [3]; [7]): 100 | Pigweed plant response rating (pigweed [3]; [8]): 100 | Pigweed plant response rating (pigweed [3]; [9]): 100 | Plant response rating, Pigweed (pigweed [3]; [10]): 100 | Foxtail, Giant plant response rating (giant foxtail; [11]): 20 | Plant response rating (0 to 100), Foxtail, Giant (giant foxtail; 125 g ai/ha, postemergence): 40 | Plant response rating, Foxtail, Giant (giant foxtail; [12]): 35 | Plant response rating, Foxtail, Giant (giant foxtail; [13]): 30 | Plant response rating (0 to 100), Nutsedge, Yellow (yellow nutsedge [4]; 125 g ai/ha, postemergence): 10 | Plant response rating, Nutsedge, Yellow (yellow nutsedge [4]; 31 g ai/ha, 13 to 15 days): 5 | Plant response rating, Nutsedge, Yellow (yellow nutsedge [4]; 62 g ai/ha): 10 | Plant response rating, Pigweed (pigweed [5]; 125 g ai/ha, 0 to 100 scale where 0 is no effect and 100 is complete control): 100 | Pigweed plant response rating (pigweed [5]; 500 g ai/ha, 0 to 100 scale, 0 no effect, 100 complete control, approx. 10 days): 100 | Blackgrass plant response rating (blackgrass [6]; [11]): 5 | Plant response rating (0 to 100), Blackgrass (blackgrass [6]; 125 g ai/ha, postemergence): 10 | Plant response rating, Blackgrass (blackgrass [6]; [12]): 10 | Plant response rating, Blackgrass (blackgrass [6]; [13]): 10 | Plant response rating (0 to 100), Wheat (wheat, winter; 125 g ai/ha, postemergence): 5 | Plant response rating, Wheat (wheat, winter; 31 g ai/ha, 13 to 15 days): 5 | Plant response rating, Wheat (wheat, winter; 62 g ai/ha): 5
